One data set relates to C. difficile ATCC 700057. The data set is described as follows: Primary MIC assay, C. difficile ATCC 700057. The class given is cell-based, Clostridioides difficile. To be noted: Clostridioides difficile, ATCC700057; Table 1; read-out: MIC C. difficile ATCC 700057. On the procedure: (§1) The N-arytriazole and N-naphthyltriazole peptidomimetics were subjected to antimicrobial screening. […] Vancomycin, colistin, fluconazole, and tamoxifen were used as positive controls (see Table 1 for details).
(§2) Primary screening (Gram-positive bacteria). Primary MIC assays were performed as described by the Clinical and Laboratory Standards Institute for aerobic and anaerobic bacteria. MIC values for vancomycin were within acceptable QC ranges.

In another data set the test system is C. difficile 132 (RT027). The data set is described as follows: Primary MIC assay, C. difficile 132 (RT027). The class given is cell-based, Clostridioides difficile. Conditions: Clostridioides difficile; Table 1; read-out: MIC C. difficile 132 (RT027). On the procedure:
as §1, §2

Another data set has as its system S. aureus ATCC 29213. Put plainly: Primary MIC assay, S. aureus ATCC 29213. The class given is cell-based. Conditions: Staphylococcus aureus, ATCC29213; Table 1; read-out: MIC S. aureus ATCC 29213. On the procedure:
as §1, §2

The next data set relates to S. aureus NCTC 10442. Put plainly: Primary MIC assay, S. aureus NCTC 10442 (MRSA). The class given is cell-based. Conditions: Staphylococcus aureus; Table 1; MRSA; read-out: MIC S. aureus NCTC 10442. Here is the method:
as §1, §2

The next data set concerns E. faecalis ATCC 29212. Put plainly: Primary MIC assay, E. faecalis ATCC 29212. Format: cell-based, Enterococcus faecalis. Conditions: Enterococcus faecalis, ATCC29212; Table 1; read-out: MIC E. faecalis ATCC 29212. On the procedure:
as §1, §2

In the next data set the test system is S. pneumoniae ATCC 49619. The data set is described as follows: Primary MIC assay, S. pneumoniae ATCC 49619. To be noted: Streptococcus pneumoniae, ATCC49619; Table 1; read-out: MIC S. pneumoniae ATCC 49619. Format: cell-based, Streptococcus pneumoniae. On the procedure:
as §1, §2

The test system of data set [1] is E. coli ATCC 25922. The data set is described as follows: Primary MIC assay, E. coli ATCC 25922. Format: cell-based. Conditions: Escherichia coli, ATCC25922; Table 1; read-out: MIC E. coli ATCC 25922.
Data set [2] in a line: Cytotoxicity (CC50) assay by CO-ADD. Format: cell-based, human. Conditions: human, HEK293 cells (ATCC CRL-1573); Table 1; cytotoxicity on HEK293 cells, tested at ≤32 µg/mL.
Text: as §1
(§3) Secondary screening (MRSA and Gram-negative bacteria) and cytotoxicity assay–performed by the Community for Open Antimicrobial Drug Discovery (CO-ADD). Samples were provided to CO-ADD [29] for antimicrobial screening by whole cell growth inhibition assays.
Cytotoxicity Assay. These were performed as described previously.

A further data set has as its system human erythrocytes. Put plainly: Hemolysis assay, HC50 determination. Format: cell-based. Here is the method: Hemolysis assay (human erythrocytes)–HC50 determination. These were performed as described previously.
Another data set relates to S. aureus ATCC 43300. The data set is described as follows: CO-ADD MIC assay, S. aureus ATCC 43300 (MRSA). The class given is cell-based. Conditions: Staphylococcus aureus, Table S1; MRSA; CO-ADD; read-out: MIC S. aureus ATCC 43300.
Text: as §1, §3
(§4) Bacterial Inhibition–MIC Assay. These were performed as described previously.

The next data set relates to P. aeruginosa ATCC 27853. The data set is described as follows: CO-ADD MIC assay, P. aeruginosa ATCC 27853. Format: cell-based. To be noted: Pseudomonas aeruginosa, ATCC27853, Table S1.
Text: as §1, §3, §4

Data set [3] relates to K. pneumoniae ATCC 700603. Put plainly: CO-ADD MIC assay, K. pneumoniae ATCC 700603. Format: cell-based. Conditions: Klebsiella pneumoniae, ATCC700603, Table S1, multi-drug resistant.
Text: as §1, §3, §4

The next data set relates to A. baumannii ATCC 19606. Put plainly: CO-ADD MIC assay, A. baumannii ATCC 19606. Format: cell-based. Conditions: Acinetobacter baumannii, ATCC19606, Table S1.
Text: as §1, §3, §4

Data set [4] deals with E. coli ATCC 25922. The data set is described as follows: CO-ADD MIC assay, E. coli ATCC 25922. Format: cell-based. To be noted: Escherichia coli, ATCC25922, Table S1.
Text: as §1, §3, §4

The next data set relates to C. albicans ATCC 90028. The data set is described as follows: CO-ADD MIC assay, C. albicans ATCC 90028. The class given is cell-based. Conditions: Candida albicans, ATCC90028, Table S1.
Text: as §1, §3

For data set [5], the system named is Cryptococcus neoformans var. grubii ATCC 208821. The data set is described as follows: CO-ADD MIC assay, C. neoformans var. grubii ATCC 208821. Conditions: Cryptococcus neoformans, ATCC208821, Table S1. The class given is cell-based.
Text: as §1, §3

Setting [6] is: Table 1, lysis of human erythrocytes.
[7] abbreviates: Table S1, footnote says lysis of sheep erythrocytes.

Drawing on publication PMC8388771, “Cationic Peptidomimetic Amphiphiles Having a N-Aryl- or N-Naphthyl-1,2,3-Triazole Core Structure Targeting Clostridioides (Clostridium) difficile: Synthesis, Antibacterial Evaluation, and an In Vivo C. difficile Infection Model” (Antibiotics, 2021), this text covers MIC, CC50 and HC50 for five molecules.

Values after ≈ are worked out from the molar mass of the structure shown.

One may read the MIC as the lowest concentration that inhibits growth of the organism. Broadly, the CC50 is the concentration that lowers cell viability or growth by half. Read a low CC50 as greater toxicity to the cells. One may read the HC50 as the concentration that lyses half of the red blood cells. A lower HC50 goes with more damage to red cells.

Regarding `CC(C)CCc1cnnn1-c1ccccc1OCC(=O)N[C@H](CCCNC(=N)N)Cn1cc(Cc2ccccc2)nn1.Cl` [Compound 16], the minimal inhibitory concentration (MIC) with C. difficile ATCC 700057, in the data set on C. difficile 132 (RT027), in the data set with S. aureus ATCC 29213, with S. aureus NCTC 10442, in the data set on E. faecalis ATCC 29212 and with S. pneumoniae ATCC 49619 was 32 µg/mL each time. The minimal inhibitory concentration (MIC) in the data set on E. coli ATCC 25922 [1] was more than 128 µg/mL; in the data set with S. aureus ATCC 43300, 32 µg/mL; against P. aeruginosa ATCC 27853 it was more than 32 µg/mL; in data set [3], more than 32 µg/mL; against A. baumannii ATCC 19606 it was more than 32 µg/mL; against E. coli ATCC 25922 [4], more than 32 µg/mL. Also, the minimum inhibitory concentration (MIC) in the data set with C. albicans ATCC 90028 was more than 32 µg/mL; in data set [5], 32 µg/mL. The CC50 in data set [2] is more than 32 µg/mL. In addition, the HC50 with human erythrocytes (setting [6]) and with human erythrocytes (setting [7]) was more than 32 µg/mL each time.
On to `CC(C)CCc1cn(-c2c(OCC(=O)N[C@H](CCCNC(=N)N)Cn3cc(CC4CCCCC4)nn3)ccc3ccccc23)nn1.Cl` [Compound 22], for which the minimal inhibitory concentration (MIC) in the data set with C. difficile ATCC 700057 is 32 µg/mL; in the data set with C. difficile 132 (RT027) it was 32 µg/mL; with S. aureus ATCC 29213, 4 µg/mL; in the data set with S. aureus NCTC 10442, 4 µg/mL; in the data set with E. faecalis ATCC 29212 it was 8 µg/mL; in the data set with S. pneumoniae ATCC 49619, 8 µg/mL. Moreover, the minimum inhibitory concentration (MIC) with E. coli ATCC 25922 [1] was 32 µg/mL; in the data set with S. aureus ATCC 43300, 4 µg/mL; against P. aeruginosa ATCC 27853, more than 32 µg/mL; in data set [3] it was more than 32 µg/mL; against A. baumannii ATCC 19606, more than 32 µg/mL; in the data set with E. coli ATCC 25922 [4], 32 µg/mL. Further, the results for the MIC (in the data set with C. albicans ATCC 90028; in data set [5]) were 16 µg/mL and 32 µg/mL, respectively. The same molecule displayed a cytotoxic concentration (CC50) in [2] of more than 32 µg/mL. Moreover, the 50% haemolytic concentration (HC50) with human erythrocytes (setting [6]) and with human erythrocytes (setting [7]) was more than 32 µg/mL in each case.
In the case of `CC(C)CCc1cn(-c2c(OCC(=O)N[C@H](CCCNC(=N)N)Cn3cc(Cc4ccccc4)nn3)ccc3ccccc23)nn1.Cl` [Compound 23], the MIC came out at 32 µg/mL with C. difficile ATCC 700057; 32 µg/mL in the data set with C. difficile 132 (RT027); 4 µg/mL in the data set with S. aureus ATCC 29213; 4 µg/mL in the data set on S. aureus NCTC 10442; 4 µg/mL in the data set with E. faecalis ATCC 29212; 4 µg/mL in the data set with S. pneumoniae ATCC 49619. Besides, the MIC is 64 µg/mL with E. coli ATCC 25922 [1]; 8 µg/mL in the data set with S. aureus ATCC 43300; more than 32 µg/mL in the data set with P. aeruginosa ATCC 27853; more than 32 µg/mL in data set [3]; more than 32 µg/mL with A. baumannii ATCC 19606; 32 µg/mL in the data set on E. coli ATCC 25922 [4]. The MIC against C. albicans ATCC 90028 was determined as 32 µg/mL; in data set [5], 16 µg/mL. Besides, the CC50 in [2] is more than 32 µg/mL. For the same molecule, the HC50 in the data set with human erythrocytes (setting [6]) and with human erythrocytes (setting [7]) was more than 32 µg/mL in each case.
Turning to `CC(C)CCc1cnnn1-c1ccccc1OCC(=O)N[C@H](CCCCN)C(=O)N[C@H](CCCNC(=N)N)Cn1cc(Cc2ccccc2)nn1.Cl.Cl` [Compound 39], the minimum inhibitory concentration (MIC) in the data set on C. difficile ATCC 700057 was 64 µg/mL; in the data set on C. difficile 132 (RT027) it was 32 µg/mL; with S. aureus ATCC 29213, 32 µg/mL; with S. aureus NCTC 10442 it was 64 µg/mL; in the data set on E. faecalis ATCC 29212, 32 µg/mL; in the data set on S. pneumoniae ATCC 49619, 16 µg/mL. Further, the minimum inhibitory concentration (MIC) is 128 µg/mL in the data set on E. coli ATCC 25922 [1]; 32 µg/mL in the data set on S. aureus ATCC 43300; more than 32 µg/mL against P. aeruginosa ATCC 27853; more than 32 µg/mL in [3]; more than 32 µg/mL in the data set on A. baumannii ATCC 19606; more than 32 µg/mL with E. coli ATCC 25922 [4]. Besides, the MIC (with C. albicans ATCC 90028; in data set [5]) was 16 µg/mL throughout. The same molecule returned a CC50 in data set [2] of more than 32 µg/mL. Further, the HC50 in the data set with human erythrocytes (setting [6]) and with human erythrocytes (setting [7]) was more than 32 µg/mL throughout.
Take `CC(C)CCc1cn(-c2ccccc2OCC(=O)N[C@H](CCCCN)C(=O)N[C@H](CCCNC(=N)N)Cn2cc(Cc3ccccc3)nn2)nn1` [Compound 36]: the minimum inhibitory concentration (MIC) in the data set on C. difficile ATCC 700057 worked out at 128 µg/mL (≈ 183 µM); with C. difficile 132 (RT027) it was 128 µg/mL (≈ 183 µM); with S. aureus ATCC 29213 it was 32 µg/mL (≈ 45.7 µM); in the data set on S. aureus NCTC 10442, 32 µg/mL (≈ 45.7 µM); in the data set on E. faecalis ATCC 29212 it was 64 µg/mL (≈ 91.3 µM); with S. pneumoniae ATCC 49619, 16 µg/mL (≈ 22.8 µM). The minimum inhibitory concentration (MIC) was 128 µg/mL (≈ 183 µM) in the data set on E. coli ATCC 25922 [1]; 16 µg/mL (≈ 22.8 µM) in the data set on S. aureus ATCC 43300; more than 32 µg/mL in the data set on P. aeruginosa ATCC 27853; more than 32 µg/mL in data set [3]; more than 32 µg/mL against A. baumannii ATCC 19606; more than 32 µg/mL against E. coli ATCC 25922 [4]. Further, the MIC was 16 µg/mL (≈ 22.8 µM) against C. albicans ATCC 90028 and 32 µg/mL (≈ 45.7 µM) in data set [5]. The molecule also came in with a CC50 in [2] of more than 32 µg/mL. The 50% haemolytic concentration (HC50) in the data set on human erythrocytes (setting [6]) and in the data set with human erythrocytes (setting [7]) was more than 32 µg/mL throughout.
